Earlier results, collected in PMC12506672, “A phase I study of HEC73543, an oral FLT3 inhibitor: the effect of food on pharmacokinetics after oral dosing in healthy Chinese volunteers” (Frontiers in Pharmacology, 2025).

Legend:
[1] = parameters: method as in James et al., 2020; conditions: high-fat meal, healthy subjects; ref James et al., 2020
[2] = system: FLT3-ITD–positive leukemia samples; parameters: method as in Cucchi et al., 2018; conditions: ex vivo, especially high allelic ratio (AR ≥ 0.5); ref Cucchi et al., 2018
[3] = parameters: method as in Kim, 2017; conditions: standard or high-fat meal compared to fasting; ref Kim, 2017

SMILES | GLSM ratio (fed/fasted %) for AUC0–t [1] [%] | GLSM ratio (fed/fasted %) for AUC0–∞ [1] [%] | GLSM ratio (fed/fasted %) for AUC72 [1] [%] | GLSM ratio (fed/fasted %) for Cmax [1] [%] | colony-forming capacity [2] | delay of Tmax with food [3] [h] | increase of AUC exposure with food [3] | lowering of Cmax with food [3]
CCc1nc(C(N)=O)c(Nc2ccc(N3CCC(N4CCN(C)CC4)CC3)c(OC)c2)nc1NC1CCOCC1 [gilteritinib] | 94.6 | 93.8 | 91.0 | 74.0 | markedly suppresses | – | – | –
CO[C@@H]1[C@H](N(C)C(=O)c2ccccc2)C[C@H]2O[C@]1(C)n1c3ccccc3c3c4c(c5c6ccccc6n2c5c31)C(=O)NC4 [midostaurin] | – | – | – | – | – | 2.5 to 3 | 1.2- to 1.6 fold | 20%–27%
